From the supplement of paper PMC10307832

Key:
Test in all cases: relative viability (nuclei count vs DMSO), 5 days (fraction); higher = more cells survive
YM155 + Lapatinib = compound: COCC[n+]1c2c(n(Cc3cnccn3)c1C)C(=O)c1ccccc1C2=O [YM155] + CS(=O)(=O)CCNCc1ccc(-c2ccc3ncnc(Nc4ccc(OCc5cccc(F)c5)c(Cl)c4)c3c2)o1 [Lapatinib] (partner 2 µM)
Method in brief: (§1)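 After 5 days of treatment, lung cancer cells in 1536-well plates were fixed and stained in a single step (final 0.05% Triton X-100, 1% formaldehyde, 1 ug/ml Hoechst) and their nuclei counted on 4× images. Treatment had been applied by pin tool the day after seeding as one drug alone or as a fixed anchor-drug dose with five library-drug doses (not always all listed) in √10 steps. Relative viability is the nuclei count of treated wells divided by that of vehicle wells, and values are medians of duplicate plates.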

Quizartinib + Tozasertib = compound: CC(C)(C)c1cc(NC(=O)Nc2ccc(-c3cn4c(n3)sc3cc(OCCN5CCOCC5)ccc34)cc2)no1 [Quizartinib] + Cc1cc(Nc2cc(N3CCN(C)CC3)nc(Sc3ccc(NC(=O)C4CC4)cc3)n2)n[nH]1 [Tozasertib] (partner 0.1 µM)
Method in brief: as §1

Quizartinib + Phenformin = compound: CC(C)(C)c1cc(NC(=O)Nc2ccc(-c3cn4c(n3)sc3cc(OCCN5CCOCC5)ccc34)cc2)no1 [Quizartinib] + N=C(N)NC(=N)NCCc1ccccc1 [Phenformin] (partner 250 µM)
Method in brief: as §1

YM155 + Bortezomib = compound: COCC[n+]1c2c(n(Cc3cnccn3)c1C)C(=O)c1ccccc1C2=O [YM155] + CC(C)C[C@H](NC(=O)[C@H](Cc1ccccc1)NC(=O)c1cnccn1)B(O)O [Bortezomib] (partner 0.002 µM)
Method in brief: as §1

Cell Line | relative viability (YM155 + Lapatinib; first compound 0.002 µM) | relative viability (YM155 + Lapatinib; first compound 0.006325 µM) | relative viability (YM155 + Lapatinib; first compound 0.02 µM) | relative viability (YM155 + Lapatinib; first compound 0.06325 µM) | relative viability (Quizartinib + Tozasertib; first compound 0.001 µM) | relative viability (Quizartinib + Tozasertib; first compound 0.003162 µM) | relative viability (Quizartinib + Tozasertib; first compound 0.01 µM) | relative viability (Quizartinib + Tozasertib; first compound 0.1 µM) | relative viability (Quizartinib + Phenformin; first compound 0.001 µM) | relative viability (Quizartinib + Phenformin; first compound 0.003162 µM) | relative viability (Quizartinib + Phenformin; first compound 0.01 µM) | relative viability (Quizartinib + Phenformin; first compound 0.1 µM) | relative viability (YM155 + Bortezomib; first compound 0.002 µM) | relative viability (YM155 + Bortezomib; first compound 0.006325 µM) | relative viability (YM155 + Bortezomib; first compound 0.02 µM) | relative viability (YM155 + Bortezomib; first compound 0.06325 µM) | relative viability (Quizartinib + Tozasertib; first compound 0.03162 µM) | relative viability (Quizartinib + Phenformin; first compound 0.03162 µM)
SK-MES-1 | 0.468 | 0.476 | 0.442 | 0.473 | 0.852 | 0.904 | 0.864 | 0.77 | 0.593 | 0.636 | 0.677 | 0.612 |  |  |  |  |  | 
NCI-H1975 | 0.701 | 0.774 | 0.856 | 0.175 | 0.71 | 0.809 | 0.488 | 0.16 | 0.395 | 0.406 | 0.476 | 0.404 | 0.335 | 0.43 | 0.444 | 0.272 | 0.372 | 0.399
HCC-78 | 0.672 | 0.806 | 0.968 | 0.833 | 0.453 | 0.325 | 0.365 | 0.384 | 0.687 | 0.832 | 0.707 | 0.73 | 0.536 | 0.569 | 0.552 | 0.656 | 0.368 | 0.574
H3255 | 0.24 | 0.241 | 0.265 | 0.263 | 0.59 | 0.58 | 0.508 | 0.544 | 0.38 | 0.31 | 0.383 | 0.354 | 0.711 | 0.719 | 0.858 | 0.693 | 0.584 | 0.346
NCI-H1299 | 0.949 | 0.962 | 0.908 | 0.176 |  |  |  |  |  |  |  |  | 1.02 | 1.01 | 1 | 1 |  | 
NCI-H441 |  |  |  |  | 0.66 | 0.599 | 0.586 | 0.489 | 0.831 | 0.807 | 0.787 | 0.958 | 0.452 | 0.407 | 0.466 | 0.446 |  | 
NCI-H1755 | 1.04 | 1.03 | 1.01 | 1.04 | 0.583 | 0.536 | 0.569 | 0.48 | 0.58 | 0.665 | 0.609 | 0.672 | 0.941 | 0.894 | 1.03 | 0.923 | 0.626 | 0.652
LCLC-97TM1 | 1.04 | 1.03 | 1 | 0.551 | 0.183 | 0.218 | 0.172 | 0.207 | 0.396 | 0.379 | 0.421 | 0.375 | 0.313 | 0.74 | 0.621 | 0.185 | 0.248 | 0.464
NCI-H2085 | 0.746 | 0.752 | 0.614 | 0.315 | 0.679 | 0.752 | 0.816 | 0.45 | 0.631 | 0.648 | 0.753 | 0.574 | 0.949 | 0.974 | 0.83 | 0.631 | 0.614 | 0.673
BEN | 0.59 | 0.746 | 0.782 | 0.86 | 0.48 | 0.504 | 0.562 | 0.39 | 0.271 | 0.279 | 0.272 | 0.26 | 0.665 | 0.849 | 0.852 | 0.906 | 0.54 | 0.243
NCI-H2126 | 0.768 | 0.788 | 0.726 | 0.783 | 0.751 | 0.848 | 0.831 | 0.846 | 0.518 | 0.58 | 0.534 | 0.576 | 1.07 | 1.13 | 1.09 | 1.16 |  | 
EMC-BAC-2 | 0.795 | 0.899 | 0.874 | 0.817 | 0.262 | 0.259 | 0.281 | 0.282 | 0.446 | 0.493 | 0.552 | 0.525 | 1.03 | 1.08 | 1.04 | 1.06 |  | 
NCI-H1793 |  | 0.584 | 0.606 | 0.479 | 0.329 | 0.289 | 0.291 | 0.238 | 0.361 | 0.338 | 0.385 | 0.37 |  |  |  |  | 0.214 | 0.317
NCI-H650 | 0.84 | 0.929 | 0.785 | 0.707 | 0.706 | 0.676 | 0.694 | 0.736 | 0.433 | 0.454 | 0.409 | 0.476 | 1.02 | 0.771 | 1.08 | 0.871 | 0.689 | 0.399
NCI-H1437 | 0.72 | 0.784 | 0.767 | 0.708 | 0.372 | 0.399 | 0.422 | 0.329 | 0.274 | 0.277 | 0.294 | 0.172 | 0.501 | 0.501 | 0.516 | 0.519 | 0.367 | 0.208
COR-L 105 | 0.33 | 0.353 | 0.337 | 0.368 | 0.344 | 0.343 | 0.42 | 0.347 | 0.449 | 0.495 | 0.471 | 0.426 | 0.682 | 0.81 | 0.958 | 0.786 | 0.36 | 0.406
